According to publication PMC10255713, “Palm Fruit (Phoenix dactylifera L.) Pollen Extract Inhibits Cancer Cell and Enzyme Activities and DNA and Protein Damage” (Nutrients, 2023):

Columns and labels:
[1] = tested on: Escherichia coli (ATCC 25922); assay: Agar-well diffusion susceptibility test; format: cell-based; settings: E. coli
Experimental: (§1) The pre-cultures of these pathogens were prepared through separate cultivation on Muller–Hinton broth at 37 °C for 24 h. […] After cultivation at 37 °C for 24 h, the developed inhibition zones (Halo zones) around wells indicated positive results. Amoxicillin (AX-25) and ampicillin (AM-10) were included as reference antibacterial drugs, while clotrimazole (CLT) and amphotericin-B (AmB) were applied as reference antifungal drugs.

[2] = tested on: Pseudomonas aeruginosa (ATCC 27853); assay: Agar-well diffusion susceptibility test; format: cell-based; settings: P. aeruginosa
Experimental: as §1

[3] = tested on: Salmonella typhimurium (ATCC 14028); assay: Agar-well diffusion susceptibility test; format: cell-based; settings: S. typhimurium
Experimental: as §1

[4] = tested on: Staphylococcus aureus (ATCC 25923); assay: Agar-well diffusion susceptibility test; format: cell-based; settings: S. aureus
Experimental: as §1

[5] = tested on: Streptococcus mutans (ATCC 25175); assay: Agar-well diffusion susceptibility test; format: cell-based; settings: S. mutans
Experimental: as §1

[6] = DPPH free radical-scavenging assay; settings: wet basis; mean ± SD, n = 3
Experimental: The percentage inhibition of these radical compounds was determined using Equation (1):% Inhibition DPPH^• = (Abs. control − Abs. sample)/(Abs. control) × 100(1)
The absorbance of the DPPH^• mixture without the test sample was considered as the Abs. control test. Absorbance was measured with a Varian CARY 50 Scan UV–VIS Spectrophotometer equipped with a Cary 50 Microplate Reader (Varian, Inc., Walnut Creek, CA, USA).

[7] = ABTS free radical-scavenging assay; settings: for ABTS maximum antioxidant activity: at 5 mg/mL
Experimental: The ABTS^• radicals are employed as a model system to assess the antioxidant activity of the compounds [33]. The percentage inhibition of the ABTS^• radicals by the test compounds was calculated using Equation 1, as described earlier.

[8] = Ferric-reducing/antioxidant power (FRAP) assay; settings: for maximum FRAP value: at 5 mg/mL; for FRAP antioxidant inhibition activity IC50: wet basis, mean ± SD, n = 3
Experimental: The FRAP reagent was prepared by mixing TPTZ (10 mM mixture) in 40 mM HCl, FeCl3 (20 mM), and acetate buffer (pH 3.6, 0.3 M) in a ratio of 1:1:10 (v/v/v). Next, 1 mL of the test sample was mixed with 2 mL of freshly prepared FRAP reagent, and the solutions were incubated for 30 min at 37 °C. The absorbance of the resulting mixture was measured at 593 nm. Deionized water was employed as a blank, and FeSO4 was used to establish the calibration curve. The FRAP values were expressed as µmol of Fe (II).

[9] = Total antioxidant capacity (TAC) phosphomolybdate assay; settings: for maximum total antioxidant capacity value (absorbance at 695 nm): at 5 mg/mL; for Total Antioxidant Capacity IC50: wet basis, mean ± SD, n = 3
Experimental: Briefly, a reagent containing sodium phosphate (28 mM), sulfuric acid (0.6 M), and ammonium molybdate (4 mM) was added to 0.1 mL of the test samples, and the mixture was incubated at 95 °C for 90 min. After cooling, the absorbance of the mixture was measured at 695 nm. A higher absorbance value indicates a greater antioxidant capacity of the tested samples.

[10] = Nitric oxide radical (NO) scavenging, Griess reaction; settings: for NO-scavenging maximum inhibition: at 5 mg/mL; for Nitric Oxide scavenging IC50: wet basis, mean ± SD, n = 3
Experimental: The reaction mixture contained 2 mL of sodium nitroprusside (10 mM), 0.5 mL of saline phosphate buffer, and 0.5 mL of the test samples. The mixtures were incubated for 150 min at 25 °C. After incubation, 0.5 mL of the reaction mixture was combined with 1 mL of sulfanilic acid reagent (0.33% in 20% glacial acetic acid). Following a 5 min wait, 1 mL of naphthyl ethylene diamine dihydrochloride (0.1%) was added. The mixtures were left for 30 min at room temperature, and the absorbance was measured at 540 nm. The percentage of nitrites was calculated using Equation 1, as described earlier.

mushroom tyrosinase = assay: Tyrosinase inhibition assay; format: biochemical; settings: for tyrosinase inhibition: highest concentration (5 mg/mL); for Tyrosinase inhibition activity IC50: mean ± SD, n = 3
Experimental: To assess the inhibition of tyrosinase activity, a previously reported method was followed in this study. […] The mixture was incubated at 37 °C for 10 min, and then 1 mL of 50 units/mL mushroom tyrosinase liquefied in 0.2 M, pH 6.8 phosphate buffer was added. The resulting mixture was incubated for an additional 10 min, and the absorbance was measured at 475 nm. Ethanol (50%) was used as a blank, while 1 mL of deionized water was a control. The percentage of tyrosinase inhibition activity was calculated using Equation (1).

porcine α-amylase = biological target: T1, porcine α-amylase (Sus scrofa, UniProt P00690); assay: Porcine α-amylase inhibition assay; format: biochemical
T1 sequence (P00690 16-511): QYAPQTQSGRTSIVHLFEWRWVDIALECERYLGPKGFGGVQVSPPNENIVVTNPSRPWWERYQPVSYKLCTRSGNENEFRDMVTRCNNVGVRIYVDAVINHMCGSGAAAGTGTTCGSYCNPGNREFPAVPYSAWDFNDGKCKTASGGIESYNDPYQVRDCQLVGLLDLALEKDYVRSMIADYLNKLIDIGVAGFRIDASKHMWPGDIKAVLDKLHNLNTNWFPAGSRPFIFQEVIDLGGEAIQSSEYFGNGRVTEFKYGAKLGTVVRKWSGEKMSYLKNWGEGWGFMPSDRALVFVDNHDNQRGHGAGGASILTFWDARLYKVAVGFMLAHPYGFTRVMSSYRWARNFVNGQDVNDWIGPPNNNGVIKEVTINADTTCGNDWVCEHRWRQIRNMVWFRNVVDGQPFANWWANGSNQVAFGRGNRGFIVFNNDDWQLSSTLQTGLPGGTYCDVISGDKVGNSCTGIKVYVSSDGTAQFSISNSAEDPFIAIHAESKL
Experimental: In this study, the inhibition activity of porcine α-amylase was evaluated following a previously reported method. […] The combination was incubated at 25 °C for a specific period, following which starch solution mixed with sodium phosphate (0.02 M pH 6.9) and sodium chloride (6 mM) was added and incubated at 25 °C for 10 min. After the incubation, 1 mL of dinitrosalicylic acid (color reagent) was included in the mixture at 100 °C for 10 min to stop the reaction, followed by chilling to 25 °C. The absorbance of the resulting combination was measured at 540 nm, after adding 1 mL of deionized water. The percentage of inhibition activity of porcine α-amylase was calculated using Equation (1).

plasmid pBR322 DNA = assay: Free radical-induced (H2O2 + UV) DNA damage assay; format: biochemical
Experimental: Once the reaction was completed, the tested samples were electrophoresed through a polysaccharide agarose 0.8% gel, and we stained the electrophoresed gel with ethidium bromide. The electrophoresed gel was analyzed, and we captured photographs of the electrophoresed gel using Image Lab 4.1 software, version 6.1.0. (Bio-Rad, Hercules, CA, USA).

[11] = tested on: bovine serum albumin (BSA); assay: Protein oxidation produced by AAPH (SDS-PAGE); settings: AAPH 20 mM, 30 min
Experimental: The mixture was then incubated in a shaking water bath for 30 min at 37 °C. A control sample not including AAPH was also prepared. After incubation, the mixture was loaded onto an SDS-PAGE 10% gel under reduction conditions for 5 min at 100 °C. Images of the stained gel were captured using a Chemi-Doc MV gel documentation system (Bio-Rad, Hercules, CA, USA). The intensity of the bands was determined to quantify the aggregate of protein damage for all bands employing Image Lab 4.1 Software version 6.1.0 (Bio-Rad, Hercules, CA, USA). […] The use of SDS-PAGE and staining methods provides a visual representation of the extent of protein damage and allows for quantification of the results.

[12] = tested on: Candida albicans (ATCC 10231); assay: Agar-well diffusion susceptibility test; format: cell-based; settings: C. albicans; Control 2 for yeast, 10 mg/disc
Experimental: as §1

acetylcholinesterase = acetylcholinesterase (Homo sapiens, UniProt P22303); assay: Acetylcholinesterase inhibition assay; format: biochemical
Experimental: The mixture was then incubated at room temperature for 15 min. After this, 475 µL of 3 mM DTNB solution and 75 µL of […] 15 mM were added to the mixture and incubated for an additional 30 min at room temperature. Finally, the absorbance of the mixture was measured at 405 nm, and the percentage of inhibition activity of acetylcholinesterase was calculated by Equation (1), as explained earlier.

[13] = highest concentration tested (5 mg/mL)

acetylcholinesterase, sequence (P22303 32-614, species assumed): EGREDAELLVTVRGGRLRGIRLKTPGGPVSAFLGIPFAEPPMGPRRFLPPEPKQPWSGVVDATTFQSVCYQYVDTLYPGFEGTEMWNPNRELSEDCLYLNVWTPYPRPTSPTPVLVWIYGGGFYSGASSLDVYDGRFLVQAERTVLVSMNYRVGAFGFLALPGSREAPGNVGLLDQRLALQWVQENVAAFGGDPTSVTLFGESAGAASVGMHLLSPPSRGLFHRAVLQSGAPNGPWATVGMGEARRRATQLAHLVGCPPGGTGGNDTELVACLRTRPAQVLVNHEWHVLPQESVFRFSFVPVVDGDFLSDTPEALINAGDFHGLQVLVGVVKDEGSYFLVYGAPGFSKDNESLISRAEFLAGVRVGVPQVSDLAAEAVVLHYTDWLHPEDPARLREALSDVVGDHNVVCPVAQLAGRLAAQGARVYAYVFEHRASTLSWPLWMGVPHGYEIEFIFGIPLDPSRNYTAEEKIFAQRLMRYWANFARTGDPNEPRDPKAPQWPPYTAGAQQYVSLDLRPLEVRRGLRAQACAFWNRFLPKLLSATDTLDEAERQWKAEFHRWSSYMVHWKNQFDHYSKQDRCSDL

CC1(C)S[C@@H]2[C@H](NC(=O)[C@H](N)c3ccc(O)cc3)C(=O)N2[C@H]1C(=O)O [amoxicillin]
inhibition-zone diameter ([1]; Control 1, 25 mg/disc): 25.00 ± 2.40 mm | inhibition-zone diameter ([2]; Control 1, 25 mg/disc): 28.00 ± 2.76 mm | inhibition-zone diameter ([3]; Control 1, 25 mg/disc): 30.00 ± 1.30 mm | inhibition-zone diameter ([4]; Control 1, 25 mg/disc): −ve | inhibition-zone diameter ([5]; Control 1, 25 mg/disc): 37.00 ± 2.80 mm

O=C1O[C@H]([C@@H](O)CO)C(O)=C1O [VC, vitamin C]
DPPH antioxidant inhibition activity IC50 [6]: 881.70 ± 13.38 µg/mL | ABTS maximum antioxidant activity [7]: 90.13 ± 0.04% | maximum FRAP value [8]: 10,233.67 ± 243.72 µmol of Fe (II) | FRAP antioxidant inhibition activity IC50 [8]: 743.60 ± 30.11 µg/mL | maximum total antioxidant capacity value (absorbance at 695 nm) [9]: 0.041 ± 0.000 | Total Antioxidant Capacity IC50 [9]: 3005.00 ± 72.45 µg/mL | NO-scavenging maximum inhibition [10]: 56.55 ± 1.52% | Nitric Oxide scavenging IC50 [10]: 2710.00 ± 13.35 µg/mL | tyrosinase inhibition (mushroom tyrosinase): 98.72 ± 0.15% | Tyrosinase inhibition activity IC50 (mushroom tyrosinase): 1881.00 ± 48.56 µg/mL | α-amylase activity inhibition (porcine α-amylase; [13]): 93.18 ± 0.18% | Porcine α-amylase inhibition activity IC50 (porcine α-amylase; mean ± SD, n = 3): 97.62 ± 8.14 µg/mL | DNA damage inhibition activity IC50 (plasmid pBR322 DNA): 505.00 ± 21.63 µg/mL | BSA damage inhibition activity IC50 [11]: 25.32 ± 1.29 µg/mL

O=c1cc(CO)occ1O [Kojic Acid, kojic acid]
tyrosinase inhibition (mushroom tyrosinase): 99.88 ± 0.11%

C[C@@H]1[C@H](O)[C@@H](C)/C=C/C=C/C=C/C=C/C=C/C=C/C=C/[C@H](O[C@@H]2O[C@H](C)[C@@H](O)[C@H](N)[C@@H]2O)C[C@@H]2O[C@](O)(C[C@@H](O)C[C@@H](O)[C@H](O)CC[C@@H](O)C[C@@H](O)CC(=O)O[C@H]1C)C[C@H](O)[C@H]2C(=O)O [amphotericin-B]
inhibition-zone diameter [12]: 25.50 ± 2.30 mm

C[C@H]1O[C@H](O[C@H]2[C@H](O)[C@@H](O)[C@@H](O[C@H]3[C@H](O)[C@@H](O)C(O)O[C@@H]3CO)O[C@@H]2CO)[C@H](O)[C@@H](O)[C@@H]1N[C@H]1C=C(CO)[C@@H](O)[C@H](O)[C@H]1O (some centres unmarked) [Acarbose, acarbose]
inhibition at 5000 µg/mL (porcine α-amylase; [13]): 99.12 ± 0.1%

C[C@@H]1O[C@@H](OC[C@H]2O[C@@H](Oc3c(-c4ccc(O)c(O)c4)oc4cc(O)cc(O)c4c3=O)[C@H](O)[C@@H](O)[C@@H]2O)[C@H](O)[C@H](O)[C@H]1O [Rutin, rutin]
DPPH antioxidant inhibition activity IC50 [6]: 417.80 ± 5.78 µg/mL | ABTS maximum antioxidant activity [7]: 92.69 ± 0.32% | ABTS antioxidant inhibition activity IC50 ([7]; wet basis, mean ± SD, n = 3): 6.50 ± 0.08 µg/mL | maximum FRAP value [8]: 10,644.00 ± 86.02 µmol of Fe (II) | FRAP antioxidant inhibition activity IC50 [8]: 391.00 ± 7.46 µg/mL | maximum total antioxidant capacity value (absorbance at 695 nm) [9]: 1.57 ± 0.01 | Total Antioxidant Capacity IC50 [9]: 17,600 ± 41.64 µg/mL | NO-scavenging maximum inhibition [10]: 79.01 ± 0.07% | Nitric Oxide scavenging IC50 [10]: 270.10 ± 3.51 µg/mL | tyrosinase inhibition (mushroom tyrosinase): 55.00 ± 0.23% | Tyrosinase inhibition activity IC50 (mushroom tyrosinase): 494.40 ± 27.86 µg/mL | IC50 (porcine α-amylase): 142 µM | inhibition at 5000 µg/mL (porcine α-amylase; [13]): 91.51 ± 0.51% | IC50 (acetylcholinesterase): 1490 µM | inhibition at 5000 µg/mL (acetylcholinesterase; highest concentration tested (5 mg/mL), read-out: AChE activity inhibition): 15.92 ± 0.13% | DNA damage inhibition activity IC50 (plasmid pBR322 DNA): 15.00 ± 0.22 µg/mL | BSA damage inhibition activity IC50 [11]: 3.68 ± 0.35 µg/mL

CC1(C)S[C@@H]2[C@H](NC(=O)[C@H](N)c3ccccc3)C(=O)N2[C@H]1C(=O)O [ampicillin]
inhibition-zone diameter ([1]; Control 2, 10 mg/disc): −ve | inhibition-zone diameter ([2]; Control 2, 10 mg/disc): 13.20 ± 0.68 mm | inhibition-zone diameter ([3]; Control 2, 10 mg/disc): 10.00 ± 0.80 mm | inhibition-zone diameter ([4]; Control 2, 10 mg/disc): −ve | inhibition-zone diameter ([5]; Control 2, 10 mg/disc): 18.00 ± 1.48 mm
